For orientation: IC50 means the point on the concentration scale where inhibition reaches its midpoint. The term melting point denotes the temperature, or range, at which the solid turns liquid.

Counter-ions that a name gives are not always drawn. Like-named read-outs stand apart in the source and are kept apart here. Bounds are passed on as bounds.

For data set [1], the system named is CD1 Mice. Conditions: commercially available antidepressant drugs, subcutaneous; Millan MJ et al., 2001 JPET, 298(2): 581-591; cited from earlier work.
A further data set has as its system rats. Kind of data set: CFA model of inflammatory pain in rats (Randall-Selitto), potentiation of a low dose of morphine. In kind it is in vivo.
A further data set deals with I2 Imidazoline Receptor. The experiment in a line: Binding study towards I2 imidazoline receptor subtype in rat brain ([3H]2-BFI displacement). Particulars: read-out: [3H]2-BFI binding IC50; rat whole brain membranes, [3H]-2BFI 2.5x10-9 M, 90 min at 25° C. How it is done:
Binding Study Towards I2 Imidazoline Receptor Subtype in Rat Brain.
Male Wistar rats (240-300 g, Harlan, Italy) were sacrificed by decapitation. Whole brains were immediately removed on ice and homogenised in 10 volumes of buffered sucrose (0.32M in 50 mM Tris-HCl, pH 7.4 at 4° C.) using a motor driven Teflon-glass homogeniser. The homogenate was centrifuged at 1000×g for 10 min at 4° C. The resultant supernatants were pooled and centrifuged at 32000×g for 20 min at 4° C. The supernatants were discarded and each pellet suspended in 10 volumes of assay buffer (50 mM Tris-HCl, 1 mM MgCl2, pH 7.4 at 4° C.) and spun at 32000×g for 20 min at 4° C. The pellets were washed twice by repeated centrifugation at 32000×g for 20 min at 4° C. The final pellets were stored at −80° C. until use. Prior to radioligand binding studies, membrane pellets were thawed and washed a further 4 times by re-suspension in 10 volumes of assay buffer (as above) and repeated centrifugation to remove any possible endogenous inhibitors of binding. […] Non specific binding was determined in the presence of 10^-5 M BU224 (Tocris Bioscience). The incubation, in a final volume of 1 ml, was performed in polystyrene multiwell 24, started adding membranes suspension and was carried out for 90 min at 25° C. With the exception of total binding and non specific binding, all concentration points were performed in duplicate. Compounds were tested in 3-5 different concentrations, ranging from 10^-10 M to 10^-5 M final concentration.

For data set [2], the system named is CD1 Mice. Kind of data set: Tail suspension test in mice. It is filed as in vivo. Particulars: for ED50: oral. How it is done:
Tail Suspension Test in Mice
To evaluate novel antidepressants compounds several animal models have been developed. […] The antidepressant effect of representative examples of compounds of formula (I) has been evaluated according to the procedure below. The immobility was induced according to the procedure of Stem et al. (1985). CD1 Mice (Harlan, Italy) were individually suspended 75 cm above the top with an adhesive tape placed 1 cm from the tip of the tail. Immobility duration was recorded for 5 min. Mice were considered immobile only when they hung passively and completely motionless. Compounds were given orally, 30 min before the test at doses ranging between 0.3 and 30 mg/kg. Data collected were expressed as mean percent effect (MPE), which represents the % of inhibition in immobility time between the animals treated with representative compounds of formula (I) and the controls that received only the vehicle.

The target of another data set is human recombinant MAO-A (Homo sapiens (Human), UniProt P21397). Kind of data set: Monoaminooxidase (MAO) activity assay, MAO-Glo luminescent method, MAO-A.
The next data set deals with human recombinant MAO-B (Homo sapiens (Human), UniProt P27338). Kind of data set: Monoaminooxidase (MAO) activity assay, MAO-Glo luminescent method, MAO-B.
[3] abbreviates: Table 3, dose 3 mg/Kg OS, 30 min before the test.
The mark [4] stands for this setting: Table 3, dose 10 mg/Kg OS, 30 min before the test.
The mark [5] stands for this setting: Table 3, dose 30 mg/Kg OS, 30 min before the test.
The mark [6] stands for this setting: Table 3, dose yielding 50% reduction of immobility.
The mark [7] stands for this setting: read-out: MAO A activity IC50, human recombinant MAO-A, substrate 40 μM, 60 min room temperature.

Chain of human recombinant MAO-A (P21397 whole entry): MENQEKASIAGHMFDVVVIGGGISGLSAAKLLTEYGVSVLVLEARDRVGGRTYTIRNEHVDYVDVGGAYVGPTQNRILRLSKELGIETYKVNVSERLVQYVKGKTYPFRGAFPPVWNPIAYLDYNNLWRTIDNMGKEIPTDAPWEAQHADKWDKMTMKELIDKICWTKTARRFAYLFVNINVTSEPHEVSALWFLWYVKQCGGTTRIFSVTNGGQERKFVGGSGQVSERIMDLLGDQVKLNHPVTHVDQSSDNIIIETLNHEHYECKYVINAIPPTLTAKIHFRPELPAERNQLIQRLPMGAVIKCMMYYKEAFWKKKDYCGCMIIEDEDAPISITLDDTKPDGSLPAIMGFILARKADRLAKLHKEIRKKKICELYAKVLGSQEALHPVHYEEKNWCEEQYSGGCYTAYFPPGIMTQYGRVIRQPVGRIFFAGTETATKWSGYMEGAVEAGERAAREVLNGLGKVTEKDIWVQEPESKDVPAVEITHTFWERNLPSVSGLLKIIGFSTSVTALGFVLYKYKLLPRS
Chain of human recombinant MAO-B (P27338 whole entry): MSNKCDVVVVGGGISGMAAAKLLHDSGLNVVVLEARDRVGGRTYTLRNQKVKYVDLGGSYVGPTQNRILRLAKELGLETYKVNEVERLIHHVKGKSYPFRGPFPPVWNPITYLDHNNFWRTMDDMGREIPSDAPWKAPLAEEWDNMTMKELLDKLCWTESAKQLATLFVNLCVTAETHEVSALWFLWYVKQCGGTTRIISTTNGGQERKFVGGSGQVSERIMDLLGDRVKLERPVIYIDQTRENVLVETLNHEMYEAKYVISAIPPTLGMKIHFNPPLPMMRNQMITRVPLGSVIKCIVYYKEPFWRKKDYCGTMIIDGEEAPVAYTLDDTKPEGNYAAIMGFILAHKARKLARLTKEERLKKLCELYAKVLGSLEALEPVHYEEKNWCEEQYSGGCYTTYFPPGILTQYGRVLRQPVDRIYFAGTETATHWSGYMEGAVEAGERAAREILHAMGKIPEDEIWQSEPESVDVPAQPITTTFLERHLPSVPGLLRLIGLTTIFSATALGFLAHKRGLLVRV
Protocol for human recombinant MAO-A: Monoaminooxidase (MAO) Activity Assay.
(§1) Inhibitory activity of compounds was evaluated by a homogeneous luminescent method, the MAO-Glo™ Assay (Promega), measuring the monoamine oxidase activity (MAOs) from recombinant source (microsomes from baculovirus infected insect cells, Sigma). Experiments were performed according to the Supplier's procedure, incubating human recombinant MAO-A or MAO-B with a luminogenic substrate, a derivative of beetle luciferin ((4S)-4,5-dihydro-2-(6-hydroxybenzothiazolyl)-4-thiazolecarboxylic acid). […] The MAO-Glo™ Assay was performed in two steps:
(§2) Step 1. The MAO reaction: MAO substrate was incubated with MAO-A or MAO-B (1 μg/sample) in the absence (Total activity) or presence (modulated activity) of test compounds. Total activity was determined in the presence the appropriate solvent. […] Reaction started adding the enzyme solution and samples were incubated for 60 min at room temperature. For negative control reaction, samples of MAO reaction buffer (100 mM Hepes, 5% glycerol, pH 7.5) indeed the test compound were included. For MAO-B activity assay, MAO reaction buffer contain 10% DMSO, in order to increase enzymatic activity. Step 2. […] At the end of incubation 50 μl of Luciferin Detection reagent were added to each well, plate was incubated at room temperature for 20 min, then luminescent signal was detected by luminometer (integration time 0.25-1 sec per well). […] Net MAO-dependent luminescence (net RLU) were calculated by subtracting the average luminescence of the negative control reaction without MAO enzyme. A reduction of net signal in the presence of test compound, with respect to total activity, reflect its effect on MAOs activity. […] A percentage of inhibition for each concentration tested were calculated and the IC50 value was estimated by linear regression.
Protocol for human recombinant MAO-B: Monoaminooxidase (MAO) Activity Assay.
as §1, §2

Consider `CN(C)CCCC1(c2ccc(F)cc2)OCc2cc(C#N)ccc21` (stereo not drawn) [Citalopram], for which the ED50 in the data set on CD1 Mice [1] is 8.8 mg/Kg; SC.

Take `c1ccc(-c2ncc3cc(-n4ccnc4)ccc3n2)cc1` [Example 1, [6-(1H-imidazol-1-yl)-2-phenyl]quinazoline]: the “MPE 2 h (difference in pain threshold)” value in the data set on rats (rat, in vivo) turned out to be 17.19%. For the same compound, the “MPE 3 h (difference in pain threshold)” value in the data set on rats (rat, in vivo) stood at 6.61%. Also, the “MPE 4 h (difference in pain threshold)” value with rats (rat, in vivo) was 2.46%. The concentration for half-maximal inhibition (IC50) was 680 nM on I2 Imidazoline Receptor, 220 nM on human recombinant MAO-A (setting [7]) and > 10000 nM on human recombinant MAO-B. In addition, in the data set with CD1 Mice [2] (0.3 mg/Kg Idazoxan, antagonist of imidazoline (I2) receptors), the “antidepressant-like effect in the presence of Idazoxan” value is “blocked”. For the same compound, the “MPE (% inhibition in immobility time)” value with CD1 Mice [2] (Table 3, dose 0.3 mg/Kg OS, 30 min before the test) is listed as 35%; in the data set with CD1 Mice [2] (Table 3, dose 1 mg/Kg OS, 30 min before the test) it was 38%; in the data set on CD1 Mice [2] (setting [3]), 40%; in the data set on CD1 Mice [2] (setting [4]), 66%; in the data set on CD1 Mice [2] (setting [5]), 84%; with CD1 Mice [2] (Table 4, Example 1 dose 3 mg/Kg OS, alone or with Idazoxan 0.3 mg/Kg IP), 43%. In addition, the “MPE (% inhibition in immobility time)” value in the data set with CD1 Mice [2] (Table 4, Example 1 dose 10 mg/Kg OS, alone or with Idazoxan 0.3 mg/Kg IP) is on record as 54%; with CD1 Mice [2] (Table 4, Example 1 dose 30 mg/Kg OS, alone or with Idazoxan 0.3 mg/Kg IP), 97%. The ED50 is recorded as 4.8 mg/Kg; OS in the data set with CD1 Mice [2] (setting [6]) and 5.1 mg/Kg; OS in the data set on CD1 Mice [2] (Table 4).

The compound `Cc1nccn1-c1ccc2nc(-c3ccccc3)ncc2c1` [Example 2, [6-(2-methyl-1H-imidazol-1-yl)-2-phenyl]quinazoline] came in with a melting point of 198.3 to 200.3 °C. Besides, the IC50 on I2 Imidazoline Receptor turned out to be 2400 nM. Besides, the “MPE (% inhibition in immobility time)” value in the data set with CD1 Mice [2] (setting [3]) came to 17%. For the same compound, the “MPE (% inhibition in immobility time)” value in the data set with CD1 Mice [2] (setting [4]) was determined as 77%. For the same compound, the “MPE (% inhibition in immobility time)” value with CD1 Mice [2] (setting [5]) was determined as 83%. Besides, in the data set on CD1 Mice [2] (setting [6]), the ED50 was 7.1 mg/Kg; OS. In addition, the IC50 at human recombinant MAO-A was > 10000 nM. Besides, the IC50 on human recombinant MAO-B is > 10000 nM.

`Cc1cn(-c2ccc3nc(-c4ccccc4)ncc3c2)cn1` [Example 4, [6-(4-methyl-1H-imidazol-1-yl)-2-phenyl]quinazoline] gave a melting point of 201.9 to 202.8 °C. Also, the IC50 at I2 Imidazoline Receptor was determined as 480 nM. For the same compound, on human recombinant MAO-A (setting [7]), the concentration for half-maximal inhibition (IC50) is 2060 nM. For the same compound, the IC50 at human recombinant MAO-B was > 10000 nM.

For the compound `Cc1cncn1-c1ccc2nc(-c3ccccc3)ncc2c1` [Example 5, [6-(5-methyl-1H-imidazol-1-yl)-2-phenyl]quinazoline], the IC50 at I2 Imidazoline Receptor was 1180 nM; on human recombinant MAO-A, > 10000 nM; on human recombinant MAO-B, > 10000 nM. The “MPE (% inhibition in immobility time)” value with CD1 Mice [2] (setting [3]) was found to be 41%; in the data set with CD1 Mice [2] (setting [4]), 61%; in the data set with CD1 Mice [2] (setting [5]), 91%. Moreover, the ED50 with CD1 Mice [2] (setting [6]) was 4.9 mg/Kg; OS.

Turning to `COc1ccccc1-c1ncc2cc(-n3cnc(C)c3)ccc2n1` [Example 7, [6-(4-methyl-1H-imidazol-1-yl)-2-(2-methoxyphenyl)]quinazoline], the melting point was 160.6 to 162 °C. The IC50 on I2 Imidazoline Receptor came to 2180 nM. For the same compound, the IC50 on human recombinant MAO-A was > 10000 nM. Moreover, the 50% inhibitory concentration (IC50) on human recombinant MAO-B is > 10000 nM.

For `c1cn(-c2ccc3nc(-c4ccc5occc5c4)ncc3c2)cn1` [Example 14, [6-(1H-imidazol-1-yl)-2-(benzofuran-5-yl)-]quinazoline dihydrochloride trihydrate], the IC50 on I2 Imidazoline Receptor was 610 nM; on human recombinant MAO-A (setting [7]), 350 nM; at human recombinant MAO-B it was > 10000 nM.

With `c1cn(-c2ccc3nc(-c4ccc5c(c4)OCCO5)ncc3c2)cn1` [Example 15, [6-(1H-imidazol-1-yl)-2-(2,3-dihydro-1,4-benzodioxin-6-yl)]quinazoline], the IC50 was 500 nM at I2 Imidazoline Receptor, > 10000 nM on human recombinant MAO-A and > 10000 nM at human recombinant MAO-B.

For the compound `c1cn(-c2ccc3nc(-c4ccc5c(c4)OCO5)ccc3c2)cn1` [Example 16, [6-(1H-imidazol-1-yl)-2-(1,3-benzodioxol-5-yl)]quinoline dihydrochloride], the IC50 at I2 Imidazoline Receptor was 190 nM; on human recombinant MAO-A, > 10000 nM; at human recombinant MAO-B it was > 10000 nM. Besides, the “MPE (% inhibition in immobility time)” value in the data set with CD1 Mice [2] (setting [3]) was determined as 41%; in the data set with CD1 Mice [2] (setting [4]) it was 66%; in the data set on CD1 Mice [2] (setting [5]), 100%. For the same compound, the ED50 in the data set on CD1 Mice [2] (setting [6]) is 4.6 mg/Kg; OS.

For `COc1ccc(-c2ccc3cc(-n4ccnc4)ccc3n2)cc1` [Example 18, [6-(1H-imidazol-1-yl)-2-(4-methoxyphenyl)]quinoline dihydrochloride], the figures for the IC50 on I2 Imidazoline Receptor, on human recombinant MAO-A (setting [7]) and at human recombinant MAO-B were 1900 nM, 670 nM and > 10000 nM, respectively.

Regarding `COc1ccccc1-c1ccc2cc(-n3ccnc3)ccc2n1` [Example 19, [6-(1H-imidazol-1-yl)-2-(2-methoxyphenyl)]quinoline dihydrochloride], the results for the IC50 on I2 Imidazoline Receptor, on human recombinant MAO-A and on human recombinant MAO-B were 3160 nM, > 10000 nM and > 10000 nM, respectively.

On to `c1cn(-c2ccc3nc(-c4ccoc4)ccc3c2)cn1` [Example 20, [6-(1H-imidazol-1-yl)-2-(3-furyl)]quinoline dihydrochloride], for which the IC50 was 1190 nM at I2 Imidazoline Receptor, 250 nM at human recombinant MAO-A (setting [7]) and > 10000 nM at human recombinant MAO-B.

As for `Fc1ccc(-c2ccc3cc(-n4ccnc4)ccc3n2)cc1` [Example 21, [6-(1H-imidazol-1-yl)-2-(4-fluorophenyl)]quinoline dihydrochloride], the IC50 at I2 Imidazoline Receptor is 240 nM; on human recombinant MAO-A it was > 10000 nM; on human recombinant MAO-B, > 10000 nM. Further, the “MPE (% inhibition in immobility time)” value was found to be 36% in the data set on CD1 Mice [2] (setting [3]), 72% in the data set with CD1 Mice [2] (setting [4]) and 89% in the data set with CD1 Mice [2] (setting [5]). In the data set with CD1 Mice [2] (setting [6]), the ED50 is 4.9 mg/Kg; OS.

In the case of `CN(C)c1ccc(-c2ccc3cc(-n4ccnc4)ccc3n2)cc1` [Example 22, [6-(1H-imidazol-1-yl)-2-(4-dimethylaminophenyl)]quinoline trihydrochloride], the IC50 at I2 Imidazoline Receptor came to 3780 nM; at human recombinant MAO-A (setting [7]), 2090 nM; at human recombinant MAO-B (read-out: MAO B activity IC50, human recombinant MAO-B, substrate 4 μM, 60 min room temperature), 1490 nM.

For the compound `FC(F)(F)Oc1ccc(-c2ccc3cc(-n4ccnc4)ccc3n2)cc1` [Example 23, [6-(1H-imidazol-1-yl)-2-(4-trifluoromethoxyphenyl)]quinoline dihydrochloride], the concentration for half-maximal inhibition (IC50) on I2 Imidazoline Receptor was 820 nM; on human recombinant MAO-A (setting [7]), 150 nM; on human recombinant MAO-B, > 10000 nM.

Regarding `Cc1cc(OC(F)(F)F)ccc1-c1ccc2cc(-n3ccnc3)ccc2n1` [Example 24, [6-(1H-imidazol-1-yl)-2-(2-methyl-4-trifluoromethoxyphenyl)]quinoline dihydrochloride], the results for the IC50 at I2 Imidazoline Receptor, at human recombinant MAO-A (setting [7]) and at human recombinant MAO-B were 1140 nM, 280 nM and > 10000 nM, respectively.

Take `c1ccc2c(c1)OCC(C1=NCCN1)O2` (stereo not drawn) [Idazoxan, reference compound]: the IC50 on I2 Imidazoline Receptor is 11 nM; at human recombinant MAO-A, > 1000 nM; at human recombinant MAO-B it was > 1000 nM.

As to `CN1CC[C@]23c4c5ccc(O)c4O[C@H]2[C@@H](O)C=C[C@H]3[C@H]1C5` [Morphine, reference compound], in the data set with rats (2 h, Example 1 1.5 mg/Kg OS and/or Morphine 0.5 mg/Kg SC), the “MPE 2 h (difference in pain threshold)” value turned out to be 42.88%. Also, the “MPE 3 h (difference in pain threshold)” value with rats (3 h, Example 1 1.5 mg/Kg OS and/or Morphine 0.5 mg/Kg SC) was 30.49%. In addition, in the data set on rats (4 h, Example 1 1.5 mg/Kg OS and/or Morphine 0.5 mg/Kg SC), the “MPE 4 h (difference in pain threshold)” value is given as 15.04%.

`CCOc1ccccc1OC(c1ccccc1)C1CNCCO1` (stereo not drawn) [Reboxetine]: the ED50 with CD1 Mice [1] was 4.2 mg/Kg; SC.

With `COc1ccc(C(CN(C)C)C2(O)CCCCC2)cc1` (stereo not drawn) [Venlafaxine], in the data set with CD1 Mice [1], the ED50 is on record as 11.7 mg/Kg; SC.

The values above are taken from patent publication US8633208B2, “6-1H-imidazo-quinazoline and quinolines derivatives, new MAO inhibitors and imidazoline receptor ligands” (Rottapharm S.p.A, priority 2008, dated 2014).
